These results are taken from patent US20040014028A1, “Method for determination of protective epitopes for vaccination, diagnosis and vaccine quality control” (Wolf Biotech, priority 2002, published 2004).

The subject of assay [1] is anti-peptide S2-affinity purified antibodies. Put plainly: Inhibition by synthetic peptides of binding of anti-peptide S2-affinity purified antibodies to phage clone S2-4. Conditions: serial five-fold dilutions of peptide. Also on record: species or system swine. As to the method:
In FIG. 8, there is shown the inhibition by synthetic peptides of the binding of anti-peptide S2-affinity purified antibodies to phage clone S2-4. Serial five-fold dilutions of synthetic peptides S2 (filled squares), S3 (X) or irrelevant peptide P7(filled circle) were used. Results are expressed as the percentage of the signal obtained with anti-peptide S2 affinity purified antibodies in wells to which no peptides were added. Values are the average of four readings.
This stresses the importance of motif SHF in the composition of epitope B. Anti-peptide S2 affinity-purified antibodies, recognized to a similar extent peptides S2 (OD: 0.336) and S6 (OD: 0.369), confirming that residues H^38, Q^40, I^42, Y^43 and N^44 constitute the core of epitope B.

For another assay, the system named is swine neutralizing serum. Nature of the assay: Synthetic peptide ELISA with swine anti-PRRSV neutralizing serum. The assay is classed as binding. To be noted: NS from different immunized swine. On the procedure:
(§1) In FIG. 6 there is show the reactivity of Monoclonal antibody ISU25-C1 and swine anti-PRRSV hyperimmune sera to synthetic peptides bound to MBS coated ELISA plates. Results are expressed as corrected Optical density (OD) at 405 nm (OD405): (OD tested peptide-OD irrelevant peptide P7, Table 1). SN titer was determined against PRRSV Iowa strain. ELISA s/p ratio was determined as the difference in the optical density (OD) of the test serum between viral and control antigens divided by the difference in the OD of the positive reference between viral and control antigens. Serums 3, 5, 6 y 8 are from PRRSV-hyperimmunized pigs, serum 19 is a negative control, ISU 25-C1 and ISU 19A1 (Yang, L et al, Arch. Virol. 145:1599-1619, 2000) are anti-PRRSV neutralizing and non-neutralizing monoclonal antibodies respectively.
(§2) Several deduced peptides and variations of them were synthesized using solid phase technology and Fmoc standart chemistry. To perform ELISAs with these synthetic peptides, they were diluted in PBS pH 6.8 to a final concentration of 50 μg/ml, and then were used to coat Reacti-Bind Maleimide-Activated Plates (Pierce, Rockford, Ill.) for 5 hours at room temperature. Remaining maleimide groups were blocked by a 1-hour incubation with cysteine-HCl 10 μg/ml diluted in PBS pH 6.8. An extra blocking step was carried out by incubating the plate with PBS containing 10% milk. Sera or affinity-purified antibodies were added in different dilutions and incubated for 1 hour at room temperature.
A general note: In an ELISA, binding on a coated surface is turned into a signal by an enzyme label.

For assay [2], the system named is anti-peptide S2-affinity purified antibodies. Nature of the assay: Synthetic peptide ELISA on maleimide-activated plates with anti-peptide S2-affinity purified antibodies. Conditions: for recognition by S2 affinity purified antibodies in ELISA: synthetic peptides bound to MBS coated plates; for ELISA signal (OD) with anti-peptide S2 affinity-purified antibodies: synthetic peptide bound to ELISA plate. In kind it is binding, swine. On the procedure: (§3) In FIG. 7, there is shown the reactivity of anti peptides-affinity purified antibodies to synthetic peptides bound to MBS coated ELISA plates. Results are expressed as corrected OD405 (OD tested peptide-OD irrelevant peptide P7, Table 1).
as §2
(§4) Based on the previous results, anti-epitope A and anti-epitope B antibodies were affinity purified from a pool of precipitated antibodies with a SN titer of 1:512 using Keyhole-limpet hemocianine (KLH)-conjugated peptides coupled to CNBr-activated Sepharose as ligand as it is known in the art. R4N/R1N-affinity purified antibodies recognized peptides R4N, peptide R1N and peptide S1. All these peptides contain an (A/V)LVN motif.

The subject of assay [3] is Monoclonal antibody ISU25-C1. Nature of the assay: Competition ELISA: inhibition by synthetic peptides of binding of monoclonal antibody ISU25-C1 to PRRSV-coated strips. Conditions: peptide concentration 333 μM. Also on record: species or system mouse. The source says:
In FIG. 5 there is shown the inhibition by synthetic peptides of the binding of monoclonal antibody ISU25C1 (solid lines) or monoclonal antibody ISU19-A1 (dofted lines) to PRRSV in ELISA. Serial five-fold dilutions of synthetic peptide S4 were used (filled squares). Unrelated peptide P7 was used with monoclonal antibody ISU25C1 as a negative control (filled circles). Results are expressed as the percentage of the anti PRRSV-specific signal obtained with each monoclonal antibody in wells to which no peptides were added. Values are the average of four readings.
To perform competition assays, several dilutions of peptide S4 and irrelevant peptide […] (shown in Table 1) were incubated with Monoclonal antibody ISU25-C1 for 1.5 hours at room temperature. Then, the antibody-peptide mix was added to PRRSV-coated ELISA strips (IDDEX Lab., Inc; Westbrook, Me.) for 45 minutes.

Assay [4] deals with Monoclonal antibody ISU25-C1. Nature of the assay: Synthetic peptide ELISA with monoclonal antibody ISU25-C1. In kind it is binding, mouse. As to the method:
as §1
Several deduced peptides and variations of them were synthesized using solid phase technology and Fmoc standart chemistry. To perform ELISAs with these synthetic peptides, they were diluted in PBS pH 6.8 to a final concentration of 50 μg/ml, and then were used to coat Reacti-Bind Maleimide-Activated Plates (Pierce, Rockford, Ill.) for 5 hours at room temperature. Remaining maleimide groups were blocked by a 1-hour incubation with cysteine-HCl 10 μg/ml diluted in PBS pH 6.8. An extra blocking step was carried out by incubating the plate with PBS containing 10% milk. […]

For assay [5], the system named is R4N/R1N-affinity purified antibodies. Put plainly: Synthetic peptide ELISA on maleimide-activated plates with R4N/R1N-affinity purified antibodies. In kind it is binding, swine. Conditions: synthetic peptides bound to MBS coated plates. As to the method:
as §3, §2, §4

Assay [6] concerns sera from hyperimmunized pigs. Put plainly: Phage-ELISA with sequential sera from hyperimmunized pigs. In kind it is binding, swine. To be noted: early sera (20 days pi), ELISA positive, negative or low SN titer. On the procedure: Epitopes A and B are represented by phage clones 01 and S2-4 (FIG. 1), respectively. ELISA s/p ratio was determined as the difference in the optical density (OD) of the test serum between viral and control antigens divided by the difference in the OD of the positive reference between viral and control antigens.
(§5) To detect peptides on the coat of phages, individual clones shown in FIG. 3 were propagated for 4.5 hours in E. coli ER2738 and then they were purified by two precipitations with PEG 8000. […] phages were added to each well of a Immulon 2HB (Dynex Technologies Inc, Chantilly, Va.) in sodium bicarbonate 0.1 M pH 8.6, and incubated for 16 hours at room temperature in a humidified chamber. Plates were blocked with PBS containing 10% milk for three hours at room temperature. Swine sera or Monoclonal antibody from the tissue culture supernatant were preadsorbed in PBS containing 10% non-fat milk added with 100 μg/ml of E. coli proteins. […] The results were read in a spectrophotometer at 405 nm.
Anti-PRRSV neutralizing antibodies appear late after infection and they are mainly directed against GP5. To determine a correlation between time post-infection and epitope recognition, we evaluated sera from several pigs at two different times of the hyperimmunization protocol as shown in FIG. 9.

The next assay concerns swine anti-PRRSV NS. Nature of the assay: Phage-ELISA with swine anti-PRRSV neutralizing serum. In kind it is binding. On the procedure: (§6) In FIG. 4 there is shown the reactivity of swine sera and monoclonal antibodies to selected cloned phages. Results are expressed as corrected OD405 (OD of selected phage-OD unselected phage library NS: serum from pig #6 with a neutralizing titer >64 and ELISA s/p ratio 1.053 NNS: serum from pig #5 with a neutralizing titer <4 and ELISA s/p ratio 0.652.
as §5, with “proteins. In addition, 10^10 pfu/ml of non-selected phages were added to the antibodies to reduce background caused by anti M-13 activity found in animal sera. The plates were washed six times with PBS 0.05% Tween-20 and the peroxidase-conjugated secondary antibody (1:500) was added for 30 minutes at 37 C.” for “proteins.”

The next assay has as its system swine anti-PRRSV NNS. Put plainly: Phage-ELISA with swine anti-PRRSV non-neutralizing serum. The assay is classed as binding. On the procedure:
as §6
as §5, with “proteins. In addition, 10^10 pfu/ml of non-selected phages were added to the antibodies to reduce background caused by anti M-13 activity found in animal sera. The plates were washed six times with PBS 0.05% Tween-20 and the peroxidase-conjugated secondary antibody (1:500) was added for 30 minutes at 37 C.” for “proteins.”

Assay [7] deals with Monoclonal antibody ISU25-C1. Nature of the assay: Phage-ELISA with monoclonal antibody ISU25-C1. In kind it is binding, mouse. As to the method:
as §6
as §5, with “proteins. In addition, 10^10 pfu/ml of non-selected phages were added to the antibodies to reduce background caused by anti M-13 activity found in animal sera. The plates were washed six times with PBS 0.05% Tween-20 and the peroxidase-conjugated secondary antibody (1:500) was added for 30 minutes at 37 C.” for “proteins.”

As for “SGSGANNSSSSGSGSIYNC [peptide S3, peptide S2 with motif SHF replaced by GSG]”, in assay [1], the “inhibition of the binding of anti-peptide S2-affinity purified antibodies to clone S2-4” value is on record as “inhibited the binding”. Besides, the “recognition by swine neutralizing serum in peptide ELISA” value (from here on “recognition by swine neutralizing serum”) with swine neutralizing serum is “completely abrogated”. Further, the “recognition by S2 affinity purified antibodies in ELISA” value in assay [2] is given as “did not recognize”.

With “SHITSYPAYFWC [peptide S4, mimotope for ISU25-C1]”, the “inhibition of the binding of Monoclonal antibody ISU25-C1 to PRRSV” value in assay [3] is 60%. The “recognition by swine neutralizing serum” value in the assay with swine neutralizing serum is reported as “do not recognize”. Besides, the “recognition by Monoclonal antibody ISU25-C1 in peptide ELISA” value in assay [4] is given as “recognized”.

Consider “SGSGSNNSSSSAC [peptide ΔR1N, R1N with residues 27-30 VLVN changed to irrelevant motif SGSG]”, for which the “recognition by swine neutralizing serum” value in the assay with swine neutralizing serum is “abrogated”. Moreover, the “recognition by R4N/R1N-affinity purified antibodies in ELISA” value in [5] is reported as “did not recognize”.

On to YKNTHLDLIYNA [phage clone S2-4], for which the “reactivity of sera obtained shortly after the beginning of the immunization” value in [6] is listed as “very weakly”. In the assay on swine anti-PRRSV NS, the “recognition of phage-displayed peptide by swine anti-PRRSV neutralizing serum (NS)” value is given as “strongly recognized”. For the same sequence, the “recognition of phage-displayed peptide by swine anti-PRRSV non-neutralizing serum (NNS)” value in the assay with swine anti-PRRSV NNS is “not by swine non-neutralizing serum”. The “recognition of phage-displayed peptide by Monoclonal antibody ISU25-C1” value in assay [7] is given as “not by swine non-neutralizing serum or by monoclonal antibody ISU25-C1”.

Take “VLVNANNSSSSHFQSIYNC [peptide S1, residues 27 to 43 of GP5 of IA 97-7895, contains motifs VLVN and HXXXIYN]”: in the assay on swine neutralizing serum, the “recognition by swine neutralizing serum” value is “strongly recognized”. Also, the “recognition by S2 affinity purified antibodies in ELISA” value in assay [2] is “recognized”. For the same sequence, the “recognition by R4N/R1N-affinity purified antibodies in ELISA” value in assay [5] is given as “recognized”.

For “VLVNSNNSSSSAC [peptide R1N, aminoacids 27-38 of the GP5 of PRRSV IA 97-7895 isolate]”, the “recognition by swine neutralizing serum” value in the assay on swine neutralizing serum was “recognized”. Moreover, the “recognition by S2 affinity purified antibodies in ELISA” value in assay [2] was “did not recognize”. Besides, the “recognition by R4N/R1N-affinity purified antibodies in ELISA” value in assay [5] was “recognized”.

On to “SGSGANNSSSSHFQSIYNC [peptide S2, GP5 residues 27-44 with residues 27-30 changed to SGSG]”, for which, in assay [1], the “inhibition of the binding of anti-peptide S2-affinity purified antibodies to clone S2-4” value is “inhibited to a greater extent than peptide S3”. Also, the “recognition by swine neutralizing serum” value in the assay with swine neutralizing serum is listed as “still recognized”. Further, in assay [4], the “recognition by Monoclonal antibody ISU25-C1 in peptide ELISA” value is on record as “does not recognize”. In [2], the “ELISA signal (OD) with anti-peptide S2 affinity-purified antibodies” value was 0.336 OD and the “recognition by S2 affinity purified antibodies in ELISA” value is listed as “recognized”. Further, the “recognition by R4N/R1N-affinity purified antibodies in ELISA” value in assay [5] was “did not recognize”.

Take SGSGANSNSSSHLQLIYNLTLCELC [S6]: the “ELISA signal (OD) with anti-peptide S2 affinity-purified antibodies” value in [2] is 0.369 OD.

As to ALVNIPISNNLAC [peptide R4N], the “recognition by swine neutralizing serum” value with swine neutralizing serum is on record as “recognized”. For the same sequence, in assay [2], the “recognition by S2 affinity purified antibodies in ELISA” value is reported as “did not recognize”. The “recognition by R4N/R1N-affinity purified antibodies in ELISA” value in assay [5] is reported as “recognized”.
